Laboratory results as given in ChEMBL document CHEMBL1201861, “Genomics of Drug Sensitity in Cancer screening data, Wellcome Trust Sanger Institute”.

Experiments:
Experiment in all cases: cells
[1] = test system: DBTRG-05MG; format: functional, cell-based; settings: Homo sapiens;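 further: cell viability assay measuring growth inhibition of human DBTRG-05MG cells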
Description: SANGER: Inhibition of human DBTRG-05MG cell growth in a cell viability assay.

[2] = test system: HCC1419; format: functional, cell-based; settings: Homo sapiens;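 further: growth inhibition of human HCC1419 cells, read out as cell viability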
Description: SANGER: Inhibition of human HCC1419 cell growth in a cell viability assay.

[3] = test system: HMV-2 cell line; format: functional, cell-based; settings: Homo sapiens;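 further: growth inhibition of HMV-II cells, read out with a cell viability assay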
Description: SANGER: Inhibition of human HMV-II cell growth in a cell viability assay.

[4] = test system: HPAF-II; format: functional, cell-based; settings: Homo sapiens;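 further: growth inhibition of HPAF-II cells, read out with a cell viability assay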
Description: SANGER: Inhibition of human HPAF-II cell growth in a cell viability assay.

[5] = test system: HT-1376; format: functional, cell-based; settings: Homo sapiens
Description: SANGER: Inhibition of human HT-1376 cell growth in a cell viability assay.

[6] = test system: HT-3; format: functional, cell-based; settings: Homo sapiens;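 further: growth inhibition measured with a cell viability readout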
Description: SANGER: Inhibition of human HT-3 cell growth in a cell viability assay.

[7] = test system: IGROV-1; format: functional, cell-based; settings: Homo sapiens;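 further: reduction of IGROV-1 cell growth, read out with a viability assay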
Description: SANGER: Inhibition of human IGROV-1 cell growth in a cell viability assay.

[8] = test system: JEG-3; format: functional, cell-based; settings: Homo sapiens;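 further: growth inhibition of human JEG-3 cells, read out with a cell viability assay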
Description: SANGER: Inhibition of human JEG-3 cell growth in a cell viability assay.

[9] = test system: KYSE-270; format: functional, cell-based; settings: Homo sapiens;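 further: cell growth inhibition measured with a viability assay in the human KYSE-270 line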
Description: SANGER: Inhibition of human KYSE-270 cell growth in a cell viability assay.

[10] = test system: KYSE-450; format: functional, cell-based; settings: Homo sapiens;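 further: cell growth inhibition measured by a viability assay in human KYSE-450 cells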
Description: SANGER: Inhibition of human KYSE-450 cell growth in a cell viability assay.

[11] = test system: LCLC-103H cell line; format: functional, cell-based; settings: Homo sapiens
Description: SANGER: Inhibition of human LCLC-103H cell growth in a cell viability assay.

[12] = test system: LK-2; format: functional, cell-based; settings: Homo sapiens;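 further: growth inhibition of LK-2 cells, read out with a viability assay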
Description: SANGER: Inhibition of human LK-2 cell growth in a cell viability assay.

[13] = test system: MDA-MB-175-VII; format: functional, cell-based; settings: Homo sapiens
[14] = test system: MG-63; format: functional, cell-based; settings: Homo sapiens;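 further: growth inhibition of human MG-63 cells, read out with a cell viability assay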
Description: SANGER: Inhibition of human MG-63 cell growth in a cell viability assay.

[15] = test system: MHH-ES-1; format: functional, cell-based; settings: Homo sapiens;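 further: cell growth inhibition measured by a cell viability assay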
Description: SANGER: Inhibition of human MHH-ES-1 cell growth in a cell viability assay.

[16] = test system: MKN-45; format: functional, cell-based; settings: Homo sapiens;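 further: growth inhibition of human MKN-45 cells, measured with a cell viability assay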
Description: SANGER: Inhibition of human MKN45 cell growth in a cell viability assay.

[17] = test system: NB14; format: functional, cell-based; settings: Homo sapiens;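 further: growth inhibition of NB14 cells measured with a cell viability assay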
Description: SANGER: Inhibition of human NB14 cell growth in a cell viability assay.

[18] = test system: NCI-H2009; format: functional, cell-based; settings: Homo sapiens;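 further: cell viability assay measuring inhibition of NCI-H2009 cell growth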
Description: SANGER: Inhibition of human NCI-H2009 cell growth in a cell viability assay.

[19] = test system: NCI-H2052; format: functional, cell-based; settings: Homo sapiens;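 further: growth inhibition of NCI-H2052 cells, read out with a cell viability assay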
Description: SANGER: Inhibition of human NCI-H2052 cell growth in a cell viability assay.

[20] = test system: NCI-H2170; format: functional, cell-based; settings: Homo sapiens;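 further: cell viability assay measuring growth inhibition of human NCI-H2170 cancer cells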
Description: SANGER: Inhibition of human NCI-H2170 cell growth in a cell viability assay.

[21] = test system: OVCAR-8; format: functional, cell-based; settings: Homo sapiens;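 further: growth inhibition of human OVCAR-8 cells, read out by a cell viability assay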
Description: SANGER: Inhibition of human OVCAR-8 cell growth in a cell viability assay.

[22] = test system: RD; format: functional, cell-based; settings: Homo sapiens
Description: SANGER: Inhibition of human RD cell growth in a cell viability assay.

[23] = test system: RPMI-2650; format: functional, cell-based; settings: Homo sapiens
Description: SANGER: Inhibition of human RPMI-2650 cell growth in a cell viability assay.

[24] = test system: SAS; format: functional, cell-based; settings: Homo sapiens;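 further: growth inhibition of SAS cells, read out with a cell viability assay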
Description: SANGER: Inhibition of human SAS cell growth in a cell viability assay.

[25] = test system: SBC-5; format: functional, cell-based; settings: Homo sapiens;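 further: cell viability assay read-out, IC50 is the concentration that inhibits growth of the cells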
Description: SANGER: Inhibition of human SBC-5 cell growth in a cell viability assay.

[26] = test system: SK-MEL-24; format: functional, cell-based; settings: Homo sapiens;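 further: growth inhibition read out by a cell viability assay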
Description: SANGER: Inhibition of human SK-MEL-24 cell growth in a cell viability assay.

[27] = test system: SW1783; format: functional, cell-based; settings: Homo sapiens;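 further: cell growth inhibition measured with a viability assay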
Description: SANGER: Inhibition of human SW1783 cell growth in a cell viability assay.

[28] = test system: SW-620; format: functional, cell-based; settings: Homo sapiens;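 further: growth inhibition of human SW-620 cells, measured by a cell viability assay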
Description: SANGER: Inhibition of human SW620 cell growth in a cell viability assay.

[29] = test system: SW626; format: functional, cell-based; settings: Homo sapiens;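 further: growth inhibition of SW626 cells, measured with a cell viability assay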
Description: SANGER: Inhibition of human SW626 cell growth in a cell viability assay.

[30] = test system: SW756; format: functional, cell-based; settings: Homo sapiens;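 further: growth inhibition of human SW756 cells, read out with a cell viability assay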
Description: SANGER: Inhibition of human SW756 cell growth in a cell viability assay.

[31] = test system: TCC-SUP; format: functional, cell-based; settings: Homo sapiens;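 further: growth inhibition of TCC-SUP cells, read out with a cell viability assay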
Description: SANGER: Inhibition of human TCCSUP cell growth in a cell viability assay.

[32] = test system: 23132-87; format: functional, cell-based; settings: Homo sapiens
Description: SANGER: Inhibition of human 23132-87 cell growth in a cell viability assay.

[33] = test system: A-431; format: functional, cell-based; settings: Homo sapiens;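 further: growth inhibition of A-431 cells, determined with a cell viability read-out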
Description: SANGER: Inhibition of human A431 cell growth in a cell viability assay.

[34] = test system: CAL-120; format: functional, cell-based; settings: Homo sapiens;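 further: cell growth inhibition, read out as cell viability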
Description: SANGER: Inhibition of human CAL-120 cell growth in a cell viability assay.

[35] = test system: CAL-85-1; format: functional, cell-based; settings: Homo sapiens;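 further: growth inhibition of human CAL-85-1 cells, read out with a cell viability assay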
Description: SANGER: Inhibition of human CAL-85-1 cell growth in a cell viability assay.

[36] = test system: U2OS; format: functional, cell-based, U-2-OS; settings: Homo sapiens;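 further: growth inhibition of human U-2-OS cells, determined with a cell viability assay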
Description: SANGER: Inhibition of human U-2-OS cell growth in a cell viability assay.

[37] = test system: UO-31; format: functional, cell-based; settings: Homo sapiens;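 further: cell viability assay measuring inhibition of cell growth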
Description: SANGER: Inhibition of human U031 cell growth in a cell viability assay.

[38] = test system: VMRC-RCZ; format: functional, cell-based; settings: Homo sapiens;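 further: growth inhibition measured with a cell viability assay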
Description: SANGER: Inhibition of human VMRC-RCZ cell growth in a cell viability assay.

[39] = test system: CAMA-1; format: functional, cell-based; settings: Homo sapiens;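 further: growth inhibition of CAMA-1 cells, read out with a cell viability assay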
Description: SANGER: Inhibition of human CAMA-1 cell growth in a cell viability assay.

[40] = test system: CHL-1; format: functional, cell-based; settings: Homo sapiens;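 further: cell growth inhibition, read out with a cell viability assay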
Description: SANGER: Inhibition of human CHL-1 cell growth in a cell viability assay.

[41] = test system: COR-L105; format: functional, cell-based; settings: Homo sapiens;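 further: cell growth inhibition determined with a viability assay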
Description: SANGER: Inhibition of human COR-L105 cell growth in a cell viability assay.

[42] = test system: Hs-578T; format: functional, cell-based; settings: Homo sapiens
Description: SANGER: Inhibition of human Hs-578-T cell growth in a cell viability assay.

[43] = test system: Huh-7; format: functional, cell-based; settings: Homo sapiens;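 further: HuH-7 cell growth inhibition, read out with a cell viability assay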
Description: SANGER: Inhibition of human HuH-7 cell growth in a cell viability assay.

[44] = test system: SK-MEL3; format: functional, cell-based, SK-MEL-3; settings: Homo sapiens;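 further: growth inhibition of human SK-MEL-3 cells, read out with a cell viability assay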
Description: SANGER: Inhibition of human SK-MEL-3 cell growth in a cell viability assay.

[45] = test system: SNU-387; format: functional, cell-based; settings: Homo sapiens
Description: SANGER: Inhibition of human SNU-387 cell growth in a cell viability assay.

[46] = test system: SNU-449; format: functional, cell-based; settings: Homo sapiens
Description: SANGER: Inhibition of human SNU-449 cell growth in a cell viability assay.

[47] = test system: ASPC1; format: functional, cell-based; settings: Homo sapiens;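 further: growth inhibition of AsPC-1 cells, read out with a cell viability assay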
Description: SANGER: Inhibition of human AsPC-1 cell growth in a cell viability assay.

[48] = test system: CAL-12T; format: functional, cell-based, Homo sapiens; settings: Homo sapiens, CAL-12T;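 further: growth inhibition of human CAL-12T cells, read out with a cell viability assay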
Description: SANGER: Inhibition of human CAL-12T cell growth in a cell viability assay.

[49] = test system: CAL-72; format: functional, cell-based; settings: Homo sapiens;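 further: cell viability assay measuring inhibition of proliferation in the CAL-72 cell line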
Description: SANGER: Inhibition of human CAL-72 cell growth in a cell viability assay.

[50] = test system: TGW; format: functional, cell-based; settings: Homo sapiens;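 further: growth inhibition of human TGW cells, read out with a cell viability assay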
Description: SANGER: Inhibition of human TGW cell growth in a cell viability assay.

Compound: CC[C@@]1(O)C(=O)OCc2c1cc1n(c2=O)Cc2cc3ccccc3nc2-1 [CAMPTOTHECIN]
- IC50 [1]: 40.9 nM
- IC50 [2]: > 100 nM
- IC50 [3]: 8.89 nM
- IC50 [4]: 55.1 nM
- IC50 [5]: > 100 nM
- IC50 [6]: 0.212 nM
- IC50 [7]: 36.3 nM
- IC50 [8]: 13.1 nM
- IC50 [9]: 5.22 nM
- IC50 [10]: 23.7 nM
- IC50 [11]: 20.5 nM
- IC50 [12]: 35.5 nM
- IC50 [13]: 83 nM
- IC50 [14]: 7.65 nM
- IC50 [15]: 0.129 nM
- IC50 [16]: 27.5 nM
- IC50 [17]: 0.907 nM
- IC50 [18]: 68.1 nM
- IC50 [19]: 28.3 nM
- IC50 [20]: 13.7 nM
- IC50 [21]: 7.27 nM
- IC50 [22]: 15.7 nM
- IC50 [23]: 2.22 nM
- IC50 [24]: 1.24 nM
- IC50 [25]: 32.1 nM
- IC50 [26]: 38.5 nM
- IC50 [27]: 24.6 nM
- IC50 [28]: 4.08 nM
- IC50 [29]: 76.9 nM
- IC50 [30]: 4.21 nM
- IC50 [31]: 39 nM
- IC50 [32]: 19.5 nM
- IC50 [33]: > 100 nM
- IC50 [34]: > 100 nM
- IC50 [35]: > 100 nM
- IC50 [36]: 13.5 nM
- IC50 [37]: 34.1 nM
- IC50 [38]: 47.3 nM
- IC50 [39]: 87.4 nM
- IC50 [40]: 6.09 nM

Compound: Cn1c(=O)n(-c2ccc(C(C)(C)C#N)cc2)c2c3cc(-c4cnc5ccccc5c4)ccc3ncc21 [DACTOLISIB]
- IC50 [41]: 15 nM
- IC50 [1]: 198 nM
- IC50 [2]: 38.7 nM
- IC50 [4]: 156 nM
- IC50 [5]: 385 nM
- IC50 [6]: 380 nM
- IC50 [42]: 24.6 nM
- IC50 [43]: 18.4 nM
- IC50 [7]: 136 nM
- IC50 [8]: 84.1 nM
- IC50 [9]: 131 nM
- IC50 [10]: 55.2 nM
- IC50 [11]: 286 nM
- IC50 [12]: 77.1 nM
- IC50 [13]: 39.5 nM
- IC50 [14]: 23.4 nM
- IC50 [15]: 51.9 nM
- IC50 [17]: 88.3 nM
- IC50 [19]: 175 nM
- IC50 [20]: 115 nM
- IC50 [21]: 31.3 nM
- IC50 [22]: 75.9 nM
- IC50 [23]: 52.7 nM
- IC50 [24]: 653 nM
- IC50 [25]: 83.5 nM
- IC50 [26]: 517 nM
- IC50 [44]: 148 nM
- IC50 [45]: 104 nM
- IC50 [46]: 75.8 nM
- IC50 [27]: 110 nM
- IC50 [28]: 50.4 nM
- IC50 [29]: 176 nM
- IC50 [30]: 555 nM
- IC50 [31]: 64.5 nM
- IC50 [33]: 90 nM
- IC50 [47]: 30.2 nM
- IC50 [34]: 34.7 nM
- IC50 [48]: 38.6 nM
- IC50 [49]: 293 nM
- IC50 [35]: 92.5 nM
- IC50 [50]: 760 nM
- IC50 [36]: 29.5 nM
- IC50 [37]: 96.7 nM
- IC50 [38]: 15.6 nM
- IC50 [39]: 9.8 nM
- IC50 [40]: 15.5 nM

Compound: CC(=O)c1c(C)c2cnc(Nc3ccc(N4CCNCC4)cn3)nc2n(C2CCCC2)c1=O [PALBOCICLIB]
- IC50 [41]: > 4000 nM
- IC50 [1]: > 4000 nM
- IC50 [2]: > 4000 nM
- IC50 [4]: > 4000 nM
- IC50 [5]: > 4000 nM
- IC50 [6]: > 4000 nM
- IC50 [42]: 1260 nM
- IC50 [43]: > 4000 nM
- IC50 [7]: > 4000 nM
- IC50 [8]: > 4000 nM
- IC50 [9]: > 4000 nM
- IC50 [10]: > 4000 nM
- IC50 [11]: > 4000 nM
- IC50 [12]: > 4000 nM
- IC50 [13]: > 4000 nM
- IC50 [14]: 1620 nM
- IC50 [15]: 1180 nM
- IC50 [17]: 484 nM
- IC50 [19]: > 4000 nM
- IC50 [20]: > 4000 nM
- IC50 [21]: > 4000 nM
- IC50 [22]: > 4000 nM
- IC50 [23]: > 4000 nM
- IC50 [24]: 2200 nM
- IC50 [25]: > 4000 nM
- IC50 [44]: > 4000 nM
- IC50 [45]: > 4000 nM
- IC50 [46]: > 4000 nM
- IC50 [27]: > 4000 nM
- IC50 [28]: 2260 nM
- IC50 [29]: > 4000 nM
- IC50 [30]: > 4000 nM
- IC50 [31]: > 4000 nM
- IC50 [33]: > 4000 nM
- IC50 [47]: 253 nM
- IC50 [34]: > 4000 nM
- IC50 [48]: > 4000 nM
- IC50 [49]: > 4000 nM
- IC50 [35]: > 4000 nM
- IC50 [50]: 1120 nM
- IC50 [36]: 3730 nM
- IC50 [38]: 3360 nM
- IC50 [39]: 834 nM
- IC50 [40]: > 4000 nM
